From patent US5273991A, “Imidazole-containing compositions and methods of use thereof analogs of distamycin” (Research Corporation Technologies, Inc., priority 1992, dated 1993) come the findings set out here.

Structures are written as SMILES.

In test [1] the test system is COLO-205. Description: NCI cytotoxicity screen (SRB). The format is cell-based, human. Here is the method: (§1) Compounds 6, 7, 9 and 10 were tested for cytotoxic properties by the National Cancer Institute, Bethesda, Md. The anticancer drug screen utilized a panel of 60 human tumor cell lines organized into subpanels representing leukemia, melanoma, and cancers of the lung, colon, kidney, ovary and central nervous system and is described by Monks et al. (1991) Journal of the National Cancer Institute 83, 757, which is incorporated herein by reference.
(§2) Cell lines were inoculated onto microtiter plates and preincubated for 24-28 hours. 100 μL aliquots of each compound were added to the appropriate microtiter plate wells in each of five 10-fold dilutions starting from a maximum concentration of 10^-4 M in water or DMSO. Cultures were then incubated for an additional 48 hours. Cells were then fixed in situ, followed by staining with sulforhodamine B (SRB), which binds to basic amino acids of cellular macromolecules. The solubilized stain was measured spectrophotometrically to determine relative cell growth or viability in treated and untreated cells. The monoimidazole analogs of Compounds 6, 7, 9 and 10 and the formamido analog corresponding to Compounds 7 and 10 are devoid of activity against the panel of cancer cell lines in Table III.

The test system of test [2] is MALME-3M. Description: NCI cytotoxicity screen (SRB). The format is cell-based, human. Here is the method: as §1, §2
Test [3] concerns HCT-116. Description: NCI cytotoxicity screen (SRB). The format is cell-based, human. The following applies: 48 h; Colon Cancer HCT-116. As for the experimental part: as §1, §2
For test [4], the system named is DMS-273. Put plainly: NCI cytotoxicity screen (SRB). The format is cell-based, human. As for the experimental part:
as §1, §2

Test [5] concerns DLD-1. Put plainly: NCI cytotoxicity screen (SRB). The format is cell-based, human. The note with it: 48 h; Colon Cancer DLD-1. Here is the method: as §1, §2
The subject of test [6] is A549/ATCC. Description: NCI cytotoxicity screen (SRB). The format is cell-based, human. As for the experimental part:
as §1, §2

The test system of test [7] is KM20L2. Description: NCI cytotoxicity screen (SRB). Format: cell-based, human. The note with it: 48 h; Colon Cancer KM20L2. Here is the method: as §1, §2
In test [8] the test system is NCI-H522. Put plainly: NCI cytotoxicity screen (SRB). Format: cell-based, human. As for the experimental part:
as §1, §2

The test system of test [9] is NCI-H322M. Description: NCI cytotoxicity screen (SRB). Format: cell-based, human. As for the experimental part:
as §1, §2

Test [10] has as its system NCI-H23. Description: NCI cytotoxicity screen (SRB). The format is cell-based, human. As for the experimental part: as §1, §2
Test [11] relates to NCI-H226. Description: NCI cytotoxicity screen (SRB). The format is cell-based, human. As for the experimental part:
as §1, §2

The subject of test [12] is SW-620. Description: NCI cytotoxicity screen (SRB). The format is cell-based, human. Here is the method:
as §1, §2

Test [13] has as its system K-562. Put plainly: NCI cytotoxicity screen (SRB). The format is cell-based, human. The following applies: 48 h; Leukemia K-562. Here is the method: as §1, §2
Test [14] has as its system HT29. Description: NCI cytotoxicity screen (SRB). Format: cell-based, human. Here is the method: as §1, §2
The test system of test [15] is Molt-4. Put plainly: NCI cytotoxicity screen (SRB). Format: cell-based, human. The following applies: 48 h; Leukemia Molt-4. As for the experimental part: as §1, §2
The subject of test [16] is SF-268. Description: NCI cytotoxicity screen (SRB). The format is cell-based, human. The following applies: 48 h; CNS Cancer SF-268. Here is the method:
as §1, §2

The subject of test [17] is NCI-H460. Put plainly: NCI cytotoxicity screen (SRB). The format is cell-based, human. As for the experimental part:
as §1, §2

Test [18] has as its system SF-295. Description: NCI cytotoxicity screen (SRB). Format: cell-based, human. The note with it: 48 h; CNS Cancer SF-295. Here is the method:
as §1, §2

In test [19] the test system is HCC-2998. Description: NCI cytotoxicity screen (SRB). The format is cell-based, human. Here is the method:
as §1, §2

Test [20] has as its system DMS-114. Description: NCI cytotoxicity screen (SRB). The format is cell-based, human. Here is the method: as §1, §2
Test [21] has as its system HOP-62. Put plainly: NCI cytotoxicity screen (SRB). Format: cell-based, human. The following applies: 48 h; Non-Small Cell Lung Cancer HOP-62. Here is the method: as §1, §2
In test [22] the test system is HCT-15. Description: NCI cytotoxicity screen (SRB). Format: cell-based, human. Here is the method: as §1, §2
Test [23] concerns poly(dA.dT). Description: circular dichroism (CD) titration, poly(dA.dT). The format is binding. The note with it: for CD titration result in words: r' up to ~1.0. As for the experimental part:
The DNA binding properties of the present compounds were assessed by circular dichroism (CD) titration experiments. Methods for CD titration can be found, for example, in Zimmer et al. (1986) Prog. Biophys. Molec. Biol 47, 31. The conformation of DNA can be readily determined by CD experiments, and for B-DNA, characteristic positive and negative Cotton effects are observed at 260 and 245 nm, respectively.
The interaction of Compounds 6-10 to a number of DNAs [calf thymus, poly(dA dT) and poly(dG dC)] were analyzed by CD titration studies. All the CD titration experiments were performed using identical procedures, concentrations of DNA, and increments of drug:DNA ratios (or `r`, i.e. moles of drug to moles of DNA base pairs). Therefore, the differences observed in the CD spectra for the titration of each of the compounds to the polydeoxynucleotides may be directly compared to reflect their DNA binding properties.
All experiments were performed with a continuous flow of nitrogen purging the polarimeter. A 1 mm path length jacketed cell was used and all experiments were done at room temperature. Initially, DNA [0.02 μ moles (base pairs), 130 μL] was placed in the cell and the spectrum of the DNA alone was collected. Aliquots of drug were added and the spectra collected. […] The scan parameters were set and standard for all experiments. The spectra were collected from 400 nm to 200 nm. The sensitivity was set at 1 mdeg and the scan speed was set at 20 nm per minute. Three scans were accumulated and automatically averaged by the computer. The λmax and ellipticity (mdeg) for each spectrum were collected from the raw scans and the final plots were smoothed by the noise reduction program on the computer. […] The induced CD band is presumably due to the uv absorption π to π^* transition of the drug in the drug:DNA complex. […] Therefore interaction of these drugs with DNA causes only minor conformational changes in the double helix.
On the technique in general: Circular dichroism is the unequal absorption of left and right circularly polarised light.

[24] abbreviates: 48 h, Small Cell Lung Cancer DMS-273.
The mark [25] stands for this setting: 48 h, Non-Small Cell Lung Cancer A549/ATCC.
The mark [26] stands for this setting: 48 h, Non-Small Cell Lung Cancer NCI-H522.
The mark [27] stands for this setting: 48 h, Non-Small Cell Lung Cancer NCI-H322M.
Setting [28] is: 48 h, Non-Small Cell Lung Cancer NCI-H23.
The mark [29] stands for this setting: 48 h, Non-Small Cell Lung Cancer NCI-H226.
Setting [30] is: 48 h, Non-Small Cell Lung Cancer NCI-H460.

As for `CN(C)CCNC(=O)c1nc(NC(=O)c2nc(NC(=O)c3nc(NC(=O)CCCc4ccc(N(CCCl)CCCl)cc4)cn3C)cn2C)cn1C` [Compound 10, N-(N',N'-dimethylaminoethyl)-1-methyl-4-{1-methyl-4-[4-(4,4-bis(2-chloroethyl)aminophenyl-1-butanamido)-1-methylimidazole-2-carboxamido]imidazole-2-carboxamido}imidazole-2-carboxamide], the IC50 (commonly the concentration needed to halve the response being measured) in test [1] (48 h, Colon Cancer COLO-205) was 11.4 µM; in test [2] (48 h, Melanoma MALME-3M), 52.7 µM; in [3], 5.76 µM; in [4] (setting [24]), 6.78 µM; in test [5] it was 42.2 µM; in [6] (setting [25]), 10.7 µM. The IC50 came out at 8.63 µM in test [7]; 6.77 µM in test [8] (setting [26]); 23.9 µM in [9] (setting [27]); 34.8 µM in test [10] (setting [28]); 67.5 µM in test [11] (setting [29]); 9.3 µM in test [12] (48 h, Colon Cancer SW-620). For the same compound, the IC50 amounted to 7.05 µM in test [13]; 51 µM in [14] (48 h, Colon Cancer HT29); 3.19 µM in [15]; 31.3 µM in test [16]; 6.13 µM in test [17] (setting [30]); 9.74 µM in test [18]. The IC50 in test [19] (48 h, Colon Cancer HCC-2998) was 38.5 µM; in test [20] (48 h, Small Cell Lung Cancer DMS-114) it was 7.49 µM; in [21], 44 µM; in [22] (48 h, Colon Cancer HCT-15), 45.3 µM. Also, the “negative Cotton effect band, ellipticity” value in test [23] (315 nm, equimolar titration) is on record as -0.8 mdeg.
Consider `CN(C)CCNC(=O)c1nc(NC(=O)c2nc(NC(=O)CCCc3ccc(N(CCCl)CCCl)cc3)cn2C)cn1C` [Compound 9, N-(N',N'-dimethylaminoethyl)-1-methyl-4-{4-[4,4-bis(2-chloroethyl)aminophenyl-1-butanamido]-1-methylimidazole-2-carboxamido}imidazole-2-carboxamide], for which the 50% inhibitory concentration (IC50) in test [1] (48 h, Colon Cancer COLO-205) came out at 81.6 µM; in test [2] (48 h, Melanoma MALME-3M), 56.3 µM; in test [3], 50.2 µM; in test [4] (setting [24]), 42.7 µM; in test [6] (setting [25]), 78.5 µM; in test [7], 53.4 µM. In addition, the IC50 in [8] (setting [26]) was 86.6 µM; in test [9] (setting [27]), 77.6 µM; in [10] (setting [28]), 67.3 µM; in test [11] (setting [29]) it was 47.9 µM; in test [12] (48 h, Colon Cancer SW-620), 77.3 µM; in test [13], 54.2 µM. Further, the IC50 in test [15] amounted to 71.3 µM; in test [17] (setting [30]), 43.5 µM; in test [18], 51.9 µM; in test [19] (48 h, Colon Cancer HCC-2998) it was 55.1 µM; in test [21] it was 75.5 µM; in test [22] (48 h, Colon Cancer HCT-15) it was 61.3 µM.
As to `CN(C)CCNC(=O)c1nc(NC(=O)c2nc(NC(=O)c3nc(NCc4ccc(N(CCCl)CCCl)cc4)cn3C)cn2C)cn1C` [Compound 8, N-(N',N'-dimethylaminoethyl)-1-methyl-4-{1-methyl-4-[4-(4,4-bis-(2-chloroethyl)aminobenzylamino)-1-methylimidazole-2-carboxamido]imidazole-2-carboxamido}imidazole-2-carboxamide], the “CD titration result in words” value in [23] was “did not produce any changes in the CD spectrum”.
Take `CN(C)CCNC(=O)c1nc(NC(=O)c2nc(NC(=O)c3nc(NC(=O)c4ccc(N(CCCl)CCCl)cc4)cn3C)cn2C)cn1C` [Compound 7, N-(N',N'-dimethylaminoethyl)-1-methyl-4-{1-methyl-4-[4-(4,4-bis-(2-chloroethyl)aminobenzamido)-1-methylimidazole-2-carboxamido]imidazole-2-carboxamido}imidazole-2-carboxamide]: the IC50 in [1] (48 h, Colon Cancer COLO-205) was 0.97 µM; in test [1] (COLO-205, subsequent test date) it was 0.56 µM; in [2] (48 h, Melanoma MALME-3M), 2.63 µM; in [2] (MALME-3M, subsequent test date), 4.34 µM; in test [4] (DMS-273, subsequent test date), 0.99 µM; in [5] it was 4.34 µM. For the same compound, the IC50 in test [6] (setting [25]) worked out at 5.64 µM; in test [6] (A549/ATCC, subsequent test date), 4.12 µM; in [7], 7.92 µM; in test [8] (setting [26]) it was 4.41 µM; in test [8] (NCI-H522, subsequent test date), 0.42 µM; in [9] (setting [27]), 2.39 µM. Further, the IC50 in [9] (NCI-H322M, subsequent test date) worked out at 1.97 µM; in [10] (setting [28]), 0.96 µM; in test [10] (NCI-H23, subsequent test date) it was 2.35 µM; in test [11] (NCI-H226, subsequent test date), 5.54 µM; in test [12] (48 h, Colon Cancer SW-620) it was 0.79 µM; in test [12] (SW-620, subsequent test date), 0.63 µM. Further, the IC50 stood at 0.58 µM in test [13]; 2.3 µM in [14] (48 h, Colon Cancer HT29); 1.97 µM in test [14] (HT29, subsequent test date); 0.98 µM in [15]; 0.77 µM in [16]; 5.67 µM in test [17] (setting [30]). In addition, the IC50 in test [17] (NCI-H460, subsequent test date) worked out at 4.12 µM; in test [18], 4.1 µM; in test [19] (48 h, Colon Cancer HCC-2998), 0.68 µM; in test [19] (HCC-2998, subsequent test date), 0.89 µM; in test [20] (DMS-114, subsequent test date), 0.54 µM; in test [21], 1.17 µM. The IC50 in [22] (48 h, Colon Cancer HCT-15) is over 10 µM; in [22] (HCT-15, subsequent test date), over 100 µM. For the same compound, the “CD titration result in words” value in test [23] was “minor changes in the CD spectrum”.
